Data reported in patent US8241842B2, “Methods and devices for measuring diffusion by magnetic resonance imaging” (California Institute of Technology, priority 2003, dated 2012).
“And” between values parts separate entries of the source, which are not always exact repeats. Identical values can stand only once. Like-named read-outs stand apart in the source and are kept apart here.

What was measured:
[1] = MRI of D2O/H2O exchange across a membrane in the membrane cell (Example 1A, FIG. 1); format: physicochemical; conditions: Water/D2O chamber signal ratio vs time, best fit exponential; one chamber initially D2O, the other H2O
Source text: D2O gives no signal in conventional 1H MRI, and thus acts as a negative marker. The diffusional permeability can then be calculated from the signal time-course using conventional mass transport equations assuming that signal intensity is proportional to water concentration.
FIG. 1 provides the results of experiments on D2O-concentration related signal changes in two chambers, one initially containing D2O, the other with H2O.

[2] = MRI of D2O/H2O exchange across a membrane in the membrane cell (Example 1B, FIG. 2); format: physicochemical; conditions: signal difference between chambers over 64 minutes; upper chamber deuterium oxide saline, lower water saline; 12 micron pore-size polycarbonate membrane
Source text: A 5 mm diameter membrane tissue sample is mounted between two layers of 125 micron pore-size nylon mesh. The tissue sample assembly is then mounted in the central recess of the cell base and the cell cap is tightened onto the base using three M2.5 nylon screws. O-rings mounted into the cap and base prevent fluid leakage between the upper and lower central chambers. The central well of the base is filled with water or saline water with the cell inverted. The base well is then sealed with impermeable adhesive tape. The central well of the upper chamber is filled with deuterium oxide (D2O) or D2O saline and sealed with impermeable adhesive tape as before.
D2O gives no signal in conventional ^1H MRI, and thus acts as a negative marker. The diffusional permeability can then be calculated from either the mean signal time-courses in the upper and lower chambers using conventional mass transport equations assuming that signal intensity is proportional to water concentration.
FIG. 2 provides the results of experiments on D2O-concentration related signal changes in two chambers, one initially containing D2O, the other with H2O. Cross-sectional T1-weighted magnetic resonance image through the membrane cell during permeability testing of a single layer of 12 micron pore-size polycarbonate membrane. Images at (a) time=0 minutes and (b) 64 minutes are shown. Images were acquired every 256 seconds. […]

[3] = MRI of gadolinium chelate diffusion across a membrane (Example 3, FIG. 5); format: physicochemical; conditions: exponential fit to signal difference between chambers; upper chamber initially 1 mM gadolinium chelate, lower chamber water
Procedure: FIGS. 5A-5C provide the results of experiments on gadolinium chelate-concentration related signal changes in two chambers. (a) MR image of the membrane cell with the upper chamber initially containing 1 mM gadolinium chelate (Prohance® (gadoteridol), Bracco Diagnostics Inc., Princeton N.J.) and the lower chamber containing water. Signal enhancement due to the gadolinium chelate can be indicated by red false coloring. (b) the mean signal time course within the regions of interest indicated by black boxes in (a). The signal difference between the chambers has been fitted to an exponential and has a time-constant of approximately 158 minutes. The concentration time course in each chamber would require signal-concentration calibration. […] This effect would not be readily detected by non-imaging methods.
Gadolinium chelates of various molecular weights (e.g. […]) may be used as MR detectable tracers which alter the T1 relaxation time of the surrounding water and thus imparts contrast to the image. […] If the upper chamber is initially filled with a dilute aqueous solution of the chelate, and the lower chamber is filled with water, the diffusional permeability of the membrane may be estimated from the time course of either (a) the mean signal within each chamber or (b) the spatial variation of chelate above and below the membrane as determined by calibrated MR images. […]

[4] = from mean signal ratio between chambers; one saturated with oxygen, the other with argon; 0.4 μm polycarbonate film
Source text: (§1) This sample assembly is then inserted in the upper circular recess of the membrane cell base. The membrane cell washer is then placed over the sample assembly and the membrane cell cap screwed onto the base, tightening the washer onto the sample assembly. The upper central well in the membrane cell cap is then filled with inert gas (e.g. argon or nitrogen) saturated aqueous solution and sample placed in the magnetic resonance imaging system.
(§2) Sequential T1-weighted magnetic resonance images are acquired of a midline slice through the membrane cell, parallel to the long-axis of the cell.
(§3) The generalized exponential decay to equilibrium in two chamber system, including systematic drift function F(t) is given by: SA(t)=F(t)[SA(∞)+(SA(0)−SA(∞))e^−t/Tc] SB(t)=F(t)[SB(∞)+(SB(∞)−SB(0))e^−t/Tc] Taking the ration of the two signals eliminates the systematic drift allowing the time-constant for the transport across the membrane to be determined from the MRI signal time-course, as follows:
The dividing membrane was 0.4 μm pore-size polycarbonate film.

[5] = from mean signal ratio between chambers; one saturated with oxygen, the other with argon; fresh Bruch's membrane
Source text: as §1, §2
as §3, with “follows: […]” for “follows:”

## [2H]O[2H] [D2O, deuterium oxide]
[1]
  time constant for the exchange: approximately 17.3 minutes
[2]
  time-constant of the fitted exponential decay (index of membrane permeability): 40.7 min

## CC(O)CN1CCN(CC(=O)[O-])CCN(CC(=O)[O-])CCN(CC(=O)[O-])CC1.[Gd+3] (centres unmarked) [Prohance, gadoteridol]
[3]
  time-constant: approximately 158 minutes

## O=O [oxygen]
[4]
  time-constant: 59.8 min and 54.9 min
[5]
  time-constant: 67.7 min
